Measured values from ChEMBL document CHEMBL1121597, “Synthesis and some pharmacological properties of [8-L-tryptophan]oxytocin” (1980).
Positions of bridges follow the written chain, without caps; N, C: chain ends. Residues, ends and D or L forms follow the SMILES beside them.

Legend:
[1] = tested on: Rattus norvegicus; experiment: Compound was evaluated for the intrauterine pressure assayed by intravenous injection into anesthetized rats pretreated with diethylstilbestrol; type: functional
[2] = tested on: Rattus norvegicus; experiment: Compound was evaluated for the vasopressor activity when injected intravenously into anesthetized rats pretreated with phenoxybenzamine; type: functional

In the case of CC[C@H](C)[C@@H]1NC(=O)[C@H](Cc2ccc(O)cc2)NC(=O)[C@@H](N)CSSC[C@@H](C(=O)N2CCC[C@H]2C(=O)N[C@@H](Cc2c[nH]c3ccccc23)C(=O)NCC(N)=O)NC(=O)[C@H](CC(N)=O)NC(=O)[C@H](CCC(N)=O)NC1=O (H-CYIQNCPWG-NH2; disulfide 1-6), the Activity [1] was 50 U mg-1 and the Activity [2] was <0.25 U mg-1.
